Measured values published in ChEMBL document CHEMBL1134998, “A novel synthesis of 7-aryl-8-fluoro-pyrrolo[1,2-a]pyrimid-4-ones as potent, stable GnRH receptor antagonists” (Bioorg Med Chem Lett, 2002).

Target: T1, Gonadotropin-releasing hormone receptor (Homo sapiens, UniProt P30968)
T1 sequence (P30968 whole entry): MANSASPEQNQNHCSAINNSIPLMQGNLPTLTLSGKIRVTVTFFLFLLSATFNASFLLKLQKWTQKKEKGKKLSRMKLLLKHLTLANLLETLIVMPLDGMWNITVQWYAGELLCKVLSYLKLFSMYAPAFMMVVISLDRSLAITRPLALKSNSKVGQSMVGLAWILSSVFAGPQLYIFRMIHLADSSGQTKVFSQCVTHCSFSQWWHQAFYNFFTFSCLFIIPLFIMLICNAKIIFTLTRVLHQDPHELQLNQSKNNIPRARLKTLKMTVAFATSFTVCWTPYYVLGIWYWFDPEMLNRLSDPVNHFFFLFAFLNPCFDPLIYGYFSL
Assay: Binding affinity towards human Gonadotropin-releasing hormone receptor

| Compound | Ki [nM] |
| --- | --- |
| CCOC(=O)c1cn(Cc2ccccc2F)c2c(F)c(-c3cccc(OC)c3)c(CN(C)Cc3ccco3)n2c1=O | 24000 |
| CCOC(=O)c1cn(Cc2ccccc2F)c2c(F)c(-c3cccc(OC)c3)c(CN(C)Cc3ccccc3)n2c1=O | 2600 |
| CCOC(=O)c1cn(Cc2ccccc2F)c2c(F)c(-c3cccc(OC)c3)c(CN(C)CCc3ccccn3)n2c1=O | 200 |

Continued, values first:

| Ki [nM] | Compound |
| --- | --- |
| 42 | CCOC(=O)c1cn(Cc2ccccc2F)c2c(F)c(-c3ccc(OCC(C)C)cc3)c(CN(C)Cc3ccccc3)n2c1=O |
| 92 | CCOC(=O)c1cn(Cc2ccccc2F)c2c(F)c(-c3ccc(OCC(C)C)cc3)c(CN(C)Cc3ccco3)n2c1=O |
| 9 | CCOC(=O)c1cn(Cc2ccccc2F)c2c(F)c(-c3ccc(OCC(C)C)cc3)c(CN(C)CCc3ccccn3)n2c1=O |
